Conditions: 303.15 K, Liquid, Vibrating tube method

CCCCCCCCCC [decane]
Conditions	mass density [kg/m3]
24341 kPa	740.5
24369 kPa	740.3
24389 kPa	740.3
24417 kPa	740.4
24444 kPa	740.4
24484 kPa	740.5
24509 kPa	740.4
24577 kPa	740.5
24654 kPa	740.6
24804 kPa	740.6
24833 kPa	740.7
24870 kPa	740.7
24908 kPa	740.7
24929 kPa	740.7
24962 kPa	740.7
24995 kPa	740.8
25025 kPa	740.7
25050 kPa	740.7
25648 kPa	741.1
25678 kPa	741.3
25713 kPa	741.2
25744 kPa	741.3
25771 kPa	741.3
25839 kPa	741.3
25875 kPa	741.2
25902 kPa	741.4
25935 kPa	741.4
25959 kPa	741.5
26009 kPa	741.4
26041 kPa	741.5
26073 kPa	741.5
26100 kPa	741.5
26137 kPa	741.5
26164 kPa	741.5
26206 kPa	741.5
26242 kPa	741.5
26270 kPa	741.6
26309 kPa	741.6
26334 kPa	741.6
26357 kPa	741.7
26400 kPa	741.7
26433 kPa	741.8
26465 kPa	741.7
26494 kPa	741.7
26532 kPa	741.8
26574 kPa	741.8
26607 kPa	741.9
26640 kPa	741.8
26684 kPa	741.9
26718 kPa	741.8
26752 kPa	741.9
26781 kPa	741.9
26820 kPa	741.9
26844 kPa	741.9
26884 kPa	741.9
26923 kPa	742
26947 kPa	742
26982 kPa	742.1
27007 kPa	742
27037 kPa	742.2
27071 kPa	742.1
27116 kPa	742.2
27156 kPa	742.2
27186 kPa	742.1
27226 kPa	742.2
27262 kPa	742.2
27298 kPa	742.3
27333 kPa	742.3
27375 kPa	742.4
27400 kPa	742.4
27431 kPa	742.3
27462 kPa	742.4
27503 kPa	742.3
27535 kPa	742.4
27585 kPa	742.4
27622 kPa	742.4
27666 kPa	742.4
27697 kPa	742.5
27724 kPa	742.6
27748 kPa	742.5
27771 kPa	742.6
27803 kPa	742.5
27827 kPa	742.7
27859 kPa	742.6
27890 kPa	742.6
27923 kPa	742.8
27952 kPa	742.6
27975 kPa	742.7
27999 kPa	742.8
28032 kPa	742.7
28057 kPa	742.8
28085 kPa	742.7
28118 kPa	742.9
28151 kPa	742.8
28180 kPa	742.9
28205 kPa	742.8
28234 kPa	742.9
28258 kPa	742.9
28289 kPa	742.9
28314 kPa	742.9
28343 kPa	743
28369 kPa	743
28399 kPa	743.1
28443 kPa	743
28470 kPa	743.1
28511 kPa	743.2
28542 kPa	743.1
28562 kPa	743.1
28584 kPa	743.2
28605 kPa	743.1
28622 kPa	743.2
28643 kPa	743.1
28666 kPa	743.1
28685 kPa	743.3
28705 kPa	743.2
28725 kPa	743.2
28754 kPa	743.3
28771 kPa	743.3
28791 kPa	743.3
28809 kPa	743.2
28826 kPa	743.2
28844 kPa	743.4
28865 kPa	743.2
28885 kPa	743.3
28902 kPa	743.2
28928 kPa	743.4
28945 kPa	743.3
28966 kPa	743.4
28986 kPa	743.4
29000 kPa	743.5
29018 kPa	743.4
29042 kPa	743.4
29062 kPa	743.4
29083 kPa	743.4
29107 kPa	743.4
29131 kPa	743.5
29154 kPa	743.4
